From patent US20160187320A1, “ASSAY FOR SCREENING COMPOUNDS THAT SELECTIVELY DECREASE THE NUMBER OF CANCER STEM CELLS” (THE ROGOSIN INSTITUTE, priority 2011, published 2016)
One block for each compound: values may come before it.

Key:
[1] = system: Docetaxel resistant (DR) cells (DU145-DR, 22RV1-DR); assay: Cross-resistance of Docetaxel resistant (DR) cells; type: cell-based, human; settings: data not shown
[2] = system: DU145-CK19 promoter-GFP stable cells; assay: Flow cytometry of GFP populations surviving Docetaxel; type: cell-based, human; settings: Docetaxel 10 nM, 48 hours
Source text: CK19 gene promoter region was amplified from DU145 cells genomic DNA by PCR with specific primer sets (Fw 5′-[…]-3′ (SEQ ID NO: 1) and Rv 5′-[…]-3′ (SEQ ID NO: 2)) as described previously (Tripathi et al., 2005. The PCR products were digested with Ase I and Hind III and cloned into pEGFPN1 vector (Clontech, Mountain View, Calif.) previously digested with the same enzymes. As a result, the CMV promoter was removed from the original vector and the GFP expression was under control of the CK19 promoter. The final construct was confirmed by digestion and sequencing analysis. DU145 cells were transfected with pCK19-GFP construct using Lipofectamine Plus 2000 (Invitrogen). After 24 hours, medium was replaced with fresh medium and stably expressing cells selected in the presence of G418 (Invitrogen). Positive clones were confirmed by direct microscopy and immunofluorescence and also by PCR amplification of GFP coding region using specific primers (Fw 5′-[…]-3′ (SEQ ID NO: 3) and Rv 5′-[…]-3′ (SEQ ID NO: 4)).
Flow cytometry analysis of subpopulations of prostate cancer cells were carried out following standard procedures. Intracellular CK19 and CK18 expression was performed in single-cell suspensions fixed with 70% ethanol, whereas the expression of cell surface HLA class I and GFP was determined in fresh cell samples (without fixation). […] A minimum of 10^4 cells were measured per sample.

DU145 cells = assay: Cell viability assay (MTS), parental DU145; type: cell-based; settings: Homo sapiens, DU-145; parental DU145, 72 hours; read-out: Docetaxel IC50
Protocol: (§1) Human hormone-independent prostate cancer cell lines, DU-145 and 22RV1, were obtained from American Type Culture Collection (ATCC) and maintained in RPMI 1640 medium (Gibco, Invitrogen Corp., Carlsbad, Calif.) supplemented with 10% FBS without antibiotics. Cells were grown at 37° C. in a humidified atmosphere with 5% CO2. DU145 and 22RV1 cells were selected in order to generate a prostate cancer Docetaxel resistance model. […] Thus, the generation of acquired Docetaxel resistance in these two phenotypically distinct cell lines facilitated an approach to study the molecular processes involved in the acquisition of Docetaxel resistance. Docetaxel resistant clones, DU-145-DR and 22RV1-DR, were selected by culturing cells with Docetaxel in a dose-escalation manner. Initial culture was at 5 nM Docetaxel. […]
(§2) Cell viability was analyzed using the Cell titer 96 Aquos Non-Reactive Cell Proliferation Assay (MTS) kit (Promega Corp., Madison, Wis.). […] After 72 hours, color absorbance was measured on a microplate spectrophotometer (Molecular Dynamics) at 450 nm (test wavelength) and 620 nm (reference wavelength). […] Cells were then fixed with 4% paraformaldehyde in PBS, stained with crystal violet solution and formed colonies were visually counted.

[3] = system: 22RV1-DR and DU145-DR (resistant) cells; assay: Colony formation assay, Docetaxel resistant cells; type: cell-based, human; settings: continuous Docetaxel for 21 days
Protocol: (§3) Cell viability was analyzed using the Cell titer 96 Aquos Non-Reactive Cell Proliferation Assay (MTS) kit (Promega Corp., Madison, Wis.). Cells were seeded at a density of 10^4 in 96-well culture dishes and 24 hours later medium was removed and replaced with new medium alone (control) or medium containing drugs. After 72 hours, color absorbance was measured on a microplate spectrophotometer (Molecular Dynamics) at 450 nm (test wavelength) and 620 nm (reference wavelength). The percentage of surviving cells was estimated by dividing the A 450 nm-A 620 nm of treated cells by the A 450 nm-A 620 nm of control cells. Clonogenic survival assays in response to drug treatment were performed by plating 10^3 cells in 35 mm culture dishes. After 24 hours, cells were left untreated (control) or treated with drugs. Next day, medium was changed and the cells kept growing in fresh medium without any drug or under continuous exposure to drugs. For these continuous exposure experiments, medium plus drugs were replaced every 3 days until clones of drug-resistant cells appeared. Cells were then fixed with 4% paraformaldehyde in PBS, stained with crystal violet solution and formed colonies were visually counted.

[4] = system: DU145-CK19 promoter-GFP stable cells sorted by GFP/HLA class I; assay: Colony formation assay of GFP/HLA class I sorted cells under Docetaxel; type: cell-based, human; settings: Docetaxel 10 nM continuously
Protocol: as §3

[5] = system: 22RV1 and DU145 parental (sensitive) cells; assay: Colony formation assay, Docetaxel sensitive parental cells; type: cell-based, human; settings: continuous Docetaxel for 21 days (25 nM in 22RV1, 5 nM in DU145)
Protocol: as §3

DU145-DR cells = assay: Cell viability assay (MTS), Docetaxel resistant DU145-DR; type: cell-based, human; settings: for IC50: Homo sapiens
Protocol: as §1, with “Docetaxel. After the sensitive clones were no longer present and the surviving DU-145 and 22RV1 cells repopulated the flask, the concentration of Docetaxel was increased to 10 nM and subsequently to 25 nM, 50 nM, 100 nM and 250 nM. 22RV1-DR cells were further exposed to 500 nM Docetaxel. After exposure to each increasing dose of Docetaxel, the remaining surviving cells were maintained in culture medium containing the last selection escalating dose of Docetaxel. The last drug selection concentration at which the cells were exposed was 250 nM for DU-145-DR and 500 nM for 22RV1-DR, in order to avoid reversibility of the acquired Docetaxel resistance phenotype. The process of acquired drug resistance took 9 months for DU-145-DR and 6.5 months for 22RV1-DR.” for “Docetaxel.”
as §2

22RV1 cells = assay: Cell viability assay (MTS), parental 22RV1; type: cell-based; settings: Homo sapiens; parental 22RV1, 72 hours; read-out: Docetaxel IC50
Protocol: as §1, §2

22RV1-DR cells = assay: Cell viability assay (MTS), Docetaxel resistant 22RV1-DR; type: cell-based, human; settings: for IC50: Homo sapiens
Protocol: as §1, with “Docetaxel. After the sensitive clones were no longer present and the surviving DU-145 and 22RV1 cells repopulated the flask, the concentration of Docetaxel was increased to 10 nM and subsequently to 25 nM, 50 nM, 100 nM and 250 nM. 22RV1-DR cells were further exposed to 500 nM Docetaxel. After exposure to each increasing dose of Docetaxel, the remaining surviving cells were maintained in culture medium containing the last selection escalating dose of Docetaxel. The last drug selection concentration at which the cells were exposed was 250 nM for DU-145-DR and 500 nM for 22RV1-DR, in order to avoid reversibility of the acquired Docetaxel resistance phenotype. The process of acquired drug resistance took 9 months for DU-145-DR and 6.5 months for 22RV1-DR.” for “Docetaxel.”
as §2

SMILES: N.N.[Cl][Pt][Cl] [Cisplatin]
- cross-resistance of Docetaxel resistant cells [1]: cross-resistance

- fold increase of Docetaxel IC50 (DU145-DR cells; DU145-DR versus DU145): 200 fold
- IC50 (DU145-DR cells; DU145-DR acquired resistant cells, 72 hours): 1000 nM
- IC50 (DU145-DR cells; DU145-DR after 12 weeks of drug withdrawal): 25 nM
- fold increase of Docetaxel IC50 (22RV1-DR cells; 22RV1-DR versus 22RV1): 400 fold
- IC50 (22RV1-DR cells; 22RV1-DR acquired resistant cells, 72 hours): 10000 nM
- IC50 (22RV1-DR cells; 22RV1-DR after 12 weeks of drug withdrawal): 50 nM
SMILES: CC(=O)O[C@@]12CO[C@@H]1C[C@H](O)[C@@]1(C)C(=O)[C@H](O)C3=C(C)[C@@H](OC(=O)[C@H](O)[C@@H](NC(=O)OC(C)(C)C)c4ccccc4)C[C@@](O)([C@@H](OC(=O)c4ccccc4)[C@H]21)C3(C)C [Docetaxel]
- GFP-negative phenotype, % of the total population after treatment ([2]; initially 6.4±4.3%): 73.1±10.2%
- GFP-positive phenotype, % of the total cell population after treatment ([2]; initially 87.5±10.4%): 28.3±10.6%
- IC50 (DU145 cells): 5 nM
- colony formation [3]: colonies were observed
- clone formation under continuous exposure [4]: only tumour cells with a GFP-negative/HLA class I-negative phenotype were able to form clones
- colony formation [5]: No colonies were observed
- IC50 (22RV1 cells): 25 nM

SMILES: COc1cccc2c1C(=O)c1c(O)c3c(c(O)c1C2=O)C[C@@](O)(C(=O)CO)C[C@@H]3O[C@H]1C[C@H](N)[C@H](O)[C@H](C)O1 [Doxorubicin]
- cross-resistance of Docetaxel resistant cells [1]: cross-resistance

SMILES: O=C1c2c(O)ccc(O)c2C(=O)c2c(NCCNCCO)ccc(NCCNCCO)c21 [Mitoxantrone]
- cross-resistance of Docetaxel resistant cells [1]: cross-resistance

SMILES: CC(=O)O[C@H]1C(=O)[C@@]2(C)[C@H]([C@H](OC(=O)c3ccccc3)[C@]3(O)C[C@H](OC(=O)[C@H](O)[C@@H](NC(=O)c4ccccc4)c4ccccc4)C(C)=C1C3(C)C)[C@]1(OC(C)=O)CO[C@@H]1C[C@@H]2O [Paclitaxel]
- cross-resistance of Docetaxel resistant cells [1]: cross-resistance

SMILES: CCC1=C[C@@H]2CN(C1)Cc1c([nH]c3ccccc13)[C@@](C(=O)OC)(c1cc3c(cc1OC)N(C)[C@H]1[C@@](O)(C(=O)OC)[C@H](OC(C)=O)[C@]4(CC)C=CCN5CC[C@]31[C@@H]54)C2 [Vinorelbine]
- cross-resistance of Docetaxel resistant cells [1]: cross-resistance
